Series [1] has as its system mitochondrial reactive oxygen species (mtROS). The series can be described thus: Mitochondrial reactive oxygen species (MitoSox, flow cytometry) in HepG2 cells. Format: cell-based, human. The following applies: for production of reactive oxygen species (mtROS) by mitochondrial stress: HepG2 cells, 2 hr to 24 hr, compared with PBS, rotenone 0.5 μM. As for the experimental part:
After culturing the cells for an appropriate time, the cells were incubated with 5 μM of MitoSox (Molecular probes) at 37° C. for 30 min. For flow cytometry, cell pellets were re-suspended in FACS buffer (1% FBS and 1 mM EDTA in PBS) and fixed with 4% paraformaldehyde. To prevent mitochondrial dysfunction, 10 μM of MitoTempo (SigmaAldrich) was pretreated for 12 hr, and 0.5 μM of rotenone (SigmaAldrich) reagent was used as a positive control for ROS induction through mitochondrial stress.
Background: A flow cytometer gives signals particle by particle.

Series [2] has as its system HBV. The series can be described thus: Anti-HBV effect in HepG2.2.15 or pHBV-1.2x-WT transfected HepG2 cells (HBsAg/HBeAg ELISA, Q-PCR, Southern blot). Format: cell-based. As to conditions: for e antigen / s antigen: treated for 48 hr. As for the experimental part:
In this Experimental Example, HBV polymerase-derived peptides having anti-HBV effects were identified, and cell viability upon treatment thereof was analyzed. […] Then, quantitative PCR and ELISA were performed to examine virion replication and HBV surface antigen (HBsAg).
Chronic HBV infection is known to cause severe liver diseases such as cirrhosis and hepatocellular carcinoma, unlike acute infection. Therefore, it is important to develop anti-HBV drugs that overcome chronic infections. However, since the HBV genome is integrated into the host chromosome, the complete removal of the virus from human liver and serum remains a difficult problem. Therefore, in this Experimental Example, to evaluate the anti-viral effect of Poly6, HepG2.2.15 permanent cell line that continuously expresses HBV was treated with Poly6. Further, HepG2 cells were seeded in a 6-well plate, and then transiently transfected with pHBV-1.2×-WT. […] To measure secreted HBsAg and HBeAg in culture supernatants, HBsAg (BIOKIT) and HBeAg (AccuDiag) ELISA were performed according to experimental methods provided. For detection of 8-hydroxy-2′-deoxyguanosine (8-OHdG) activity, an 8-OHdG assay kit (OxiSelect Oxidative DNA Damage ELISA kit, Cell Biolabs) and ELISA were performed according to the manufacturer's protocol.
To measure extracellular virion secretion, Southern blot analysis was performed. In detail, before ultra-centrifugation at 4° C. and 24,000 rpm for 3 hr, cell debris was removed, and virions were precipitated from the supernatant using 8% PEG6000 (Sigma) on ice for 1 hr. Pellets were harvested with PBS, and HBV DNA was collected using a QIAamp DNA mini kit (QIAGEN) according to the manufacturers instructions. Viral DNA was measured using quantitative real-time PCR (Q-PCR). PCR amplification was performed using a QPCR primer set targeting a small surface gene, which is designed to amplify an a101-bp product (Table 2). Q-PCR was performed using a commercial SensiFAST SYBR Lo-ROX kit (BIOLINE) and an HBV Genesig standard kit (Primer design) to calibrate a viral load. In addition, to detect extracellular HBV DNA, supernatants were collected and HBV particles were precipitated using […] (Sigma) as described above. Virus pellets were collected from PBS and DNA was extracted with a lysis buffer (0.25% SDS, 250 mM Tris-HCl, pH 7.4 and 250 mM EDTA). Purified HBV DNA was separated on a 1% agarose gel, transferred to a nylon membrane (Hybond N+; Amersham) by Southern blotting, and hybridized with a 32P-labeled wild-type, full length HBV DNA probe. Analysis was performed using a random primer DNA labeling kit (TaKaRa). Autoradiography was performed and analyzed using a BAS 2500 image analyzer (Fuji Photo Film).
(ELISA stands for enzyme-linked immunosorbent assay.)

For series [3], the system named is HIV-1. The following applies: 10 μM, 2 days, HIV-1-infected MT-4 cells.
Procedure: To evaluate anti-HIV-1 effects of the three polypeptides, cell-based anti-viral effects were analyzed. MT-4 cells (4×10^5 cells) were infected with HIV-1 (4×10^5 CCID50) for 1 hour. The MT-4 cells were obtained from NIH/AIDS Research and Reference Reagent Program. 293FT cells were transfected for 48 hr with HIV-1 using a pBR_HIV-1_M_NL4-3_IRES_eGFP vector (DS441) which co-expresses Nef and enhanced green fluorescence protein (eGFP) from a single bicistronic RNA, and Lipofectamine 2000 reagent (Life Technologies). A supernatant containing a viral precursor HIV-1 was harvested, and the viral titer was determined using p24 ELISA (ABL). For amplification of infectious HIV-1, MT-4 cells were infected with the viral precursor HIV-1 at a multiplicity of infection (MOI) of 0.5 for 72 hr. […]
In this regard, DMSO and AZT were purchased from Sigma-Aldrich. After 2 days of incubation, GFP images were obtained using a fluorescence microscope. The relative GFP intensity was determined using an ImageJ software program (National Institutes of Health) in pixels per area. […] Cell viability against the treated reagents was assessed by an MTT assay.
In detail, MT-4 cells were prepared at a density of 1×10^4 cells, and incubated with varying concentrations of Poly6 for 5 days. Cytotoxicity was determined using an MTT assay kit (Promega). […]
Series [4] has as its system HIV-1. As to conditions: HIV-1-infected MT-4 cells, 5 days, dose-dependent manner.
Procedure: In detail, MT-4 cells were prepared at a density of 1×10^4 cells, and incubated with varying concentrations of Poly6 for 5 days. Cytotoxicity was determined using an MTT assay kit (Promega). To analyze the anti-cytotoxic effect of Poly6 from cell death caused by cytotoxicity due to HIV-infection, MT-4 cells (1×10^4 cells) were infected with HIV-1 (1×10^4 CCID50), incubated for five days, and then subjected to cell viability assays. In addition, to determine HIV-1 titers in the supernatant, p24 ELISA was performed. […] Similar to AZT, cytopathic inhibitory effects of Poly6 on HIV-1-infected MT-4 cells were analyzed.
The next series has as its system MT-4 cells. Put plainly: Cytotoxicity assay (MTT) in MT-4 cells. As to conditions: up to 25 μM, 5 days.
The next series deals with HepG2 cells. Put plainly: Cell viability (MTS assay), HepG2. In kind it is cell-based, human. As to conditions: up to 10 μM. In general terms: Formazan colour is commonly taken as a measure of viable cells.
A further series concerns HepG2.2.15 cells. As to conditions: up to 10 μM.
For a further series, the system named is HepG2-hNTCP-C4 cells. As to conditions: up to 10 μM.
Another series relates to IFN-I. Put plainly: IFN-I related mRNA levels in HepG2-2.15 cells. Format: cell-based, human. As to conditions: compared with PBS group. The text has this:
IFN-I is induced by host cells to regulate viral infection (Stetson & Medzhitov, 2006). Therefore, to examine the effect of Poly6 on IFN-I production in HepG2-2.15 cells and mouse liver, mRNA levels of IFN-β, RIG-I, and ISG15 were examined.
In addition, to measure IFN levels by indirectly using a luciferase reporter gene for IFN-I bioassay and neutralization analysis, hMH55-293-ISRE cells was used, into which interferon sensitive response element (ISRE) associated with the luciferase reporter gene was inserted at the 3′-end using 5 μg of puromycin (Sigma Aldrich). After collecting supernatants from cells treated with each reagent for 24 hr or 48 hr, the supernatants were added to hMH55-293-ISRE cells for 6 hr. After incubation, cells were washed with PBS, and lysed with a reporter lysis buffer (E1500, Promega) at room temperature for 30 min. A luciferase assay reagent (E1500, Promega) was added and luminescence was measured using a TECAN m200 reader (TECAN).
(§1) Through the combination treatment of entecavir, which is currently used as an HBV anti-viral agent having a mechanism whereby activity of HBV polymerase in the nucleus is inhibited and converted to a phosphorylated form, and Poly6, which was confirmed to increase IFN-I, its anti-HBV effect and synergistic effect of IFN-I increase were examined. HepG2-2.15 cells were incubated at a density of 5×10^5 cells/well on a 6-well culture plate for 24 hr, and treated with PBS, ETV, or Poly6 alone or in combination of two substances. After incubating the cells for 48 hr, supernatants were collected, and subjected to ELISA, qPCR, and LDH assay.
Meanwhile, to examine a synergistic effect of the combination treatment of two substances with respect to the increase level of IFN-I, mRNAs of single treatment groups and combination treatment groups were extracted, and IFN-α, IFN-β, and TNF-α expression levels were observed. […] In addition, IFN levels were indirectly measured using a luciferase reporter gene of hMH55-293-ISRE cell.

In series [5] the test system is HBV. Put plainly: Combination treatment of entecavir and Poly6 in HepG2-2.15 cells (ELISA, qPCR). Format: cell-based. As to conditions: HepG2-2.15, 48 hr. As for the experimental part: as §1
Where [6] appears, read: compared with PBS (combination vs each single treatment).

No end group written: not given here.

Procedure for HepG2-hNTCP-C4 cells: (§2) In detail, HepG2, HepG2.2.15, and HepG2-hNTCP-C4 cells (expressing NTCP receptors on the cell membrane) were plated in a 96 microplate (1×10^4 cells/well), and incubated for 5 days with increasing concentrations of ETV (30 nM) and Poly6. For an MTS assay, a cell-titer 96 aqueous one solution was directly added to each well, and the plate was incubated for 3 hr. The plate was read at 490 nm, and each analysis was repeated in triplicate.
Procedure for HepG2.2.15 cells: as §2
Procedure for MT-4 cells: Cell viability against the treated reagents was assessed by an MTT assay.
In detail, MT-4 cells were prepared at a density of 1×10^4 cells, and incubated with varying concentrations of Poly6 for 5 days. Cytotoxicity was determined using an MTT assay kit (Promega).

Take `CC1(C)CC(NC(=O)C[P+](c2ccccc2)(c2ccccc2)c2ccccc2)CC(C)(C)N1[O]` [MitoTEMPO]: the “mitochondrial reactive oxygen species increased by rotenone and Poly6, after antioxidant treatment” value in series [1] (MitoTempo 10 μM pretreated 12 hr) was “reduced again”.
As for `C=C(C)[C@H]1Cc2c(ccc3c2O[C@@H]2COc4cc(OC)c(OC)cc4[C@@H]2C3=O)O1` [rotenone], the “production of reactive oxygen species (mtROS) by mitochondrial stress” value in series [1] is reported as “significantly increased”.
For GRLVF (Hepatitis B virus) [Poly5], in the series on HBV [2], the e antigen result is “reduced” and the s antigen entry is “reduced”. Moreover, the “virus production (HIV-1 titers by GFP imaging and p24 ELISA)” value in the series with HIV-1 [3] is “reduced”.
In the case of `Cc1cn([C@H]2C[C@H](N=[N+]=[N-])[C@@H](CO)O2)c(=O)[nH]c1=O` [AZT, 3-azido-3-deoxythymidine], in the series with HIV-1 [4], the “cell protective effect (cytopathic inhibitory effect)” value is on record as “significant cell protective effect”.
In the case of GRLVFQ [Poly6, GRLVFQ], the “cytotoxic activity against MT-4 cells (MTT)” value in the series on MT-4 cells was “did not exert significant cytotoxic activity”. The “cytotoxic activity / cell viability, HepG2” value with HepG2 cells is given as “did not exert significant cytotoxic activity”. In the series on HepG2.2.15 cells, the “cytotoxic activity / cell viability, HepG2.2.15” value is “did not exert significant cytotoxic activity”. Besides, the “cytotoxic activity / cell viability, HepG2-hNTCP-C4” value in the series on HepG2-hNTCP-C4 cells is “did not exert significant cytotoxic activity”.
For `C=C1[C@H](CO)[C@@H](O)C[C@@H]1n1cnc2c(=O)[nH]c(N)nc21` [ETV, entecavir], in the series with HBV [2] (ETV 30 nM, Poly6 10 μM, 2 days), the “viral replication levels (viral titers)” value is reported as “reduced by ETV, but there was no statistical significance”. Moreover, the “extracellular virion secretion (Southern blot)” value with HBV [2] (compared with PBS) is recorded as “clearly decreased”. Further, in series [1], the “production of reactive oxygen species (mtROS) by mitochondrial stress” value is reported as “not observed”. Besides, in the series on IFN-I, the “mRNA level of IFN-β” value is listed as “no statistical significance”, the “mRNA level of ISG15” value is “no statistical significance” and the “mRNA level of RIG-I” value was “no statistical significance”. For the same compound, in the series with HBV [5] (compared with PBS (combination also vs single treatment)), the “extracellular HBV DNA levels” value is recorded as “statistically significantly reduced”. In addition, in the series on HBV [5] (setting [6]), the “level of extracellular e antigen” value is listed as “no significant reduction effect” and the “level of extracellular s antigen” value is “no significant reduction effect”.
As to GRLVFQT (Hepatitis B virus) [Poly7], in the series with HBV [2], the e antigen result is given as “reduced” and the s antigen result is recorded as “reduced”. Further, the “virus production (HIV-1 titers by GFP imaging and p24 ELISA)” value with HIV-1 [3] was “reduced”.

The values are drawn from patent US11692011B2, “Hepatitis B virus-derived polypeptide and anti-viral use thereof” (priority 2018, dated 2023).
